The source of these data is US20100075345A1, “METHOD OF SCREENING” (priority 2007, published 2010).

The subject of the assay is Mcl-1^(−/−) mouse embryonic fibroblasts (MEFs). Kind of assay: Assay of Mcl-1 null MEF cells: ABT-737-induced killing and rescue, cell viability by CellTitre-Blue/CellTitre-Glo. Format: cell-based.

Experimental: In summary, cells are split on day one in order to have them at a confluency of 60-80% on day two. On day two, the cells are seeded out into assay plates at a density that will ensure they are not confluent by day four of the assay. The assay plates are incubated at room temperature for 20-60 minutes before being transferred to 37° C. so that edge effects are minimized. For the same reason, assay plates are never stacked on top of each other in the incubator. On day three the cells are treated first with either qVD or with WEHI library compound. […] On day four the cells are incubated for four hours in the presence of CellTitre-Blue™ Cell Viability Assay. This product contains resaruzin which is metabolized by live cells to resorufin. After four hours the level of resorufin is measured. […] This product measures the level of ATP in the cell culture as a direct correlate of cell viability via a luciferase-dependent luminescence output. […]
The protocol for day one was repeated up to the point where the cells were pelleted and the supernatant aspirated off. […] The cells were vortexed and then counted using a haemocytometer. The dilution necessary to achieve a density of 2×10^4 cells ml^−1 (1000 cells per well per 50 μl media) in the required volume was calculated and the dilution performed in 1% FCS containing media. […]

One may read the EC50 as the concentration at which the effect is half-maximal. High values mean weaker potency, low ones greater potency. As to `CN(C)CC[C@H](CSc1ccccc1)Nc1ccc(S(=O)(=O)NC(=O)c2ccc(N3CCN(Cc4ccccc4-c4ccc(Cl)cc4)CC3)cc2)cc1[N+](=O)[O-]` [ABT-737], the EC50 (Mus musculus, Fibroblast, ABT-737-treated Mcl(−/−) cells grown in 1% FCS, headed 'Expected EC50s') was […].
Turning to `CC(C)[C@H](NC(=O)c1ccc2ccccc2n1)C(=O)N[C@@H](CC(=O)O)C(=O)COc1c(F)cccc1F` [qVD-OPH], the “inhibition of killing of Mcl-1 null MEF cells by ABT-737 (rescue from ABT-737-induced apoptosis)” value (cells pre-incubated 2 hours with compound, then treated with ABT-737, viability read next day) was “can be rescued”.
